Here are results for three molecules from publication PMC9862819, “Structural Characterization of Murine Phosphodiesterase 5 Isoforms and Involvement of Cysteine Residues in Supramolecular Assembly” (International Journal of Molecular Sciences, 2023).

For assay [1], the target named is T1, MmPDE5A3 (Mus musculus, UniProt Q8CG03). Kind of assay: [3H]cGMP hydrolysis assay; also spectrophotometric thiol titration and native PAGE. On the set-up: gene Pde5a; full-length MmPDE5A3 isoform (823 amino acids common to the three isoforms), 3XFLAG tag. The assay is classed as biochemical.
The target of assay [2] is T1, MmPDE5A3. Also on record: gene Pde5a.
Assay [3] deals with T1, MmPDE5A3. Kind of assay: native PAGE conformational shift; [3H]cGMP hydrolysis; added protection of Cys with sildenafil. The assay is classed as binding. Also on record: gene Pde5a; full-length MmPDE5A3 isoform (823 amino acids common to the three isoforms), 3XFLAG tag.

For `O=C(O)c1cc(SSc2ccc([N+](=O)[O-])c(C(=O)O)c2)ccc1[N+](=O)[O-]` [DTNB, 5,5-dithio-bis-(2-nitrobenzoic acid)], the IC50 (commonly the midpoint of a concentration-inhibition curve) in assay [1] was roughly 30 µM. `CCCc1nn(C)c2c(=O)[nH]c(-c3cc(S(=O)(=O)N4CCN(C)CC4)ccc3OCC)nc12` [Sild, sildenafil]: the “native PAGE conformational shift and protection of Cys from DTNB titration” value in assay [2] was “the reactive Cys were close to the active site and were shielded by the inhibitor”. Turning to `Nc1nc2c(ncn2[C@@H]2O[C@@H]3COP(=O)(O)O[C@H]3[C@H]2O)c(=O)[nH]1` [cGMP], the “native PAGE conformational shift; [3H]cGMP hydrolysis; added protection of Cys w” value in assay [3] is “the conformation of D3 was also the main outcome of the binding of the substrate and inhibitor (cGMP and sildenafil”.
